According to patent publication US10889589B2, “Bicyclic urea, thiourea, guanidine and cyanoguanidine compounds useful for the treatment of pain” (Array BioPharma Inc., priority 2012, dated 2021):

Each compound was assayed against recombinant human TrkA (Homo sapiens (Human), UniProt P04629) (assay: TrkA Kinase Binding Assay (LanthaScreen Eu)). Conditions: averaged IC50; read-out: TrkA Enzyme IC50.
Protocol: TrkA binding activity was determined in a TrkA LanthaScreen™ Eu Kinase Binding Assay. 5 nM His-tagged recombinant human TrkA (6HIS tagged cytoplasmic domain from Invitrogen, Catalog No. PV3144) was incubated with 4 nM Alexa-Fluor® Tracer 236 (Invitrogen Cat. No. PV5592), 2 nM biotinylated anti-His (Invitrogen Cat. No. PV6090), and 2 nM europium-labeled Streptavidin (Invitrogen Cat. No. PV5899), in buffer (25 mM MOPS, pH 7.5, 5 mM MgCl2, 0.005% Triton X-100). Three fold serial dilutions of compounds of the invention in DMSO were added to a final percentage of 2% DMSO. After 60-minute incubation at 22° C., the reaction was measured using the EnVision mutlimode plate reader (PerkinElmer) via TR-FRET dual wavelength detection at […]. The percent of control was calculated using a ratiometric emission factor. The IC50 values were determined by fitting a four parameter model to the percent of control data.
Table A provides averaged IC50 values for compounds of the invention when tested in the assay of Example A, where A represents an averaged IC50 value <100 nM; B represents an averaged IC50 value from 100 to 1,000 nM, and C represents an averaged IC50 value between >1,000 nM and 3,000 nM.

Chain of recombinant human TrkA (P04629 440-796): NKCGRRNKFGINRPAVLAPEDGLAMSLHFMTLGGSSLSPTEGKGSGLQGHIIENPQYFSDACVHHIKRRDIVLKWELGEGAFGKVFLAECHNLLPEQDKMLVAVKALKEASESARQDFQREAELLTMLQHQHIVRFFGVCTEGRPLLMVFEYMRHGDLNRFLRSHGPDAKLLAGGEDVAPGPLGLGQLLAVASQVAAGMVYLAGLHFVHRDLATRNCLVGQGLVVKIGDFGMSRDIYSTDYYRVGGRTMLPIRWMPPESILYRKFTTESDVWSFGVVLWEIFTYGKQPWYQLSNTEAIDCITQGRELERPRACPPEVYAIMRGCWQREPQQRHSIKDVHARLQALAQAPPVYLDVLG

| Compound | IC50 |
| --- | --- |
| Cc1ncc(-c2nn(-c3ccccc3)c(NC(=O)N[C@@H]3c4ccccc4C4(CC4)[C@H]3O)c2C)cn1 (relative stereo) [Example 56, 1-(trans-2′-hydroxy-2′,3′-dihydrospiro[cyclopropane-1,1′-inden]-3′-yl)-3-(4-methyl-3-(2-methylpyrimidin-5-yl)-1-phenyl-1H-pyrazol-5-yl)urea] | < 100 nM |
| COc1ncc(-c2nn(-c3ccccc3)c(NC(=O)N[C@@H]3c4ccccc4C4(CC4)[C@H]3O)c2C)cn1 (relative stereo) [Example 57, 1-(trans-2′-hydroxy-2′,3′-dihydrospiro[cyclopropane-1,1′-inden]-3′-yl)-3-(3-(2-methoxypyrimidin-5-yl)-4-methyl-1-phenyl-1H-pyrazol-5-yl)urea] | < 100 nM |
| Cc1c(-c2cnn(C)c2)nn(-c2ccccc2)c1NC(=O)N[C@@H]1c2cc(F)c(F)cc2C2(CC2)[C@H]1O (relative stereo) [Example 58, 1-(trans-5′,6′-difluoro-2′-hydroxy-2′,3′-dihydrospiro[cyclopropane-1,1′-inden]-3′-yl)-3-(1′,4-dimethyl-1-phenyl-1H, 1′H-[3,4′-bipyrazol]-5-yl)urea] | < 100 nM |
| COc1nn(-c2ccccc2)c(NC(=O)N[C@@H]2c3cc(F)c(F)cc3C3(CC3)[C@H]2O)c1C (relative stereo) [Example 62, 1-(trans-5′,6′-difluoro-2′-hydroxy-2′,3′-dihydrospiro[cyclo-propane-1,1′-inden]-3′-yl)-3-(3-methoxy-4-methyl-1-phenyl-1H-pyrazol-5-yl)urea] | < 100 nM |
| Cc1c(-c2cnn(C)c2)nn(-c2ccccc2)c1NC(=O)N[C@@H]1c2cc(F)ccc2C2(CC2)[C@H]1O (relative stereo) [Example 63, 1-(1′,4-dimethyl-1-phenyl-1H1′H-[3,4′-bipyrazol]-5-yl)-3-(trans-5′-fluoro-2′-hydroxy-2′,3′-dihydrospiro[cyclopropane-1,1′-inden]-3′-yl)urea] | < 100 nM |
| Cc1c(-c2cnn(C)c2)nn(-c2ccccc2)c1NC(=O)N[C@@H]1c2ccc(F)cc2C2(CC2)[C@H]1O (relative stereo) [Example 64, 1-(1′,4-dimethyl-1-phenyl-1H,1′H-[3,4′-bipyrazol]-5-yl)-3-(trans-6′-fluoro-2′-hydroxy-2′,3′-dihydrospiro[cyclopropane-1,1′-inden]-3′-yl)urea] | < 100 nM |
| Cc1c(NC(=O)N[C@@H]2c3ccccc3C(C)(C)C[C@H]2O)n(-c2ccccc2)[nH]c1=O (relative stereo) [Example 95, 1-(trans-2-hydroxy-4,4-dimethyl-1,2,3,4-tetrahydronaphthalen-1-yl)-3-(4-methyl-5-oxo-2-phenyl-2,5-dihydro-1H-pyrazol-3-yl)urea] | < 100 nM |
| Cc1nn(-c2ccccc2)c(NC(=O)N[C@@H]2c3cc(C(N)=O)ccc3C(C)(C)C[C@H]2O)c1C (relative stereo) [Example 98, trans-8-(3-(3,4-dimethyl-1-phenyl-1H-pyrazol-5-yl)ureido)-7-hydroxy-5,5-dimethyl-5,6,7,8-tetrahydronaphthalene-2-carboxamide] | 1000 to 3000 nM |
| COC(=O)c1ccc2c(c1)[C@@H](NC(=O)Nc1c(C)c(C)nn1-c1ccccc1)[C@H](O)CC2(C)C (relative stereo) [Example 99, trans-methyl 8-(3-(3,4-dimethyl-1-phenyl-1H-pyrazol-5-yl)ureido)-7-hydroxy-5,5-dimethyl-5,6,7,8-tetrahydronaphthalene-2-carboxylate] | < 100 nM |
| Cc1c(OCC2CCN(C)CC2)nn(-c2ccccc2)c1NC(=O)N[C@@H]1c2ccccc2CC[C@H]1O (relative stereo) [Example 123, 1-(trans-2-hydroxy-1,2,3,4-tetrahydro-naphthalen-1-yl)-3-(4-methyl-3-((1-methylpiperidin-4-yl)methoxy)-1-phenyl-1H-pyrazol-5-yl)urea] | < 100 nM |
